{"source": "patent US5637584A", "about": "“Solvate of olanzapine” (Eli Lilly and Company, priority 1995, dated 1997)", "key": {"[1]": {"assay": "detection of radiolabelled compound in saliva", "format": "in vivo", "description": "The anhydrous Form I 2-methyl-4-(4-methyl-1-piperazinyl)-10H-thieno-[2,3-b][1,5]benzodiazepine compound is effective over a wide dosage range, the actual dose administered being dependent on the condition being treated. For example, in the treatment of adult humans, dosages of from 0.25 to 30 mg, preferably from 1 to 20 mg, per day may be used. A once a day dosage is normally sufficient, although divided doses may be administered. For treatment of central nervous system disorders, a dose range of from 1 to 30 mg, preferably 2.5 to 20 mg per day is suitable."}, "[2]": {"assay": "stability of the anhydrous polymorph", "format": "physicochemical", "conditions": "suitability for pharmaceutical formulations"}, "[3]": {"test_system": "conditioned avoidance response", "assay": "conditioned avoidance response in rats", "format": "in vivo"}, "[4]": {"test_system": "apomorphine-induced hypothermia", "assay": "apomorphine-induced hypothermia in mice", "format": "in vivo", "from_the_text": "(§1) The Form I olanzapine prepared by the process of this invention has useful central nervous system activity. […] For example, the anhydrous Form I compound has been assessed in a number of standard behavior tests predictive of antipsychotic activity. The claimed compound antagonised apomorphine-induced climbing behavior and hypothermia in mice. See Moore, N. A. et al Psychopharmacology 94 (2), 263-266 (1988)."}, "[5]": {"test_system": "apomorphine-induced climbing behavior", "assay": "apomorphine-induced climbing behavior in mice", "format": "in vivo", "from_the_text": "as §1"}, "[6]": {"test_system": "catalepsy", "assay": "induction of catalepsy", "format": "in vivo", "conditions": "compared with doses required to block conditioned avoidance response"}, "[7]": {"test_system": "5-HT2B receptor", "assay": "5-HT2B receptor activity"}}}
{"smiles": "Cc1cc2c(s1)Nc1ccccc1N=C2N1CCN(C)CC1", "note": "[2-methyl-4-(4-methyl-1-piperazinyl)-10H-thieno-[2,3b][1,5]benzodiazepine]", "values": [{"measurement": "detection in saliva", "setting": "[1]", "result": "can be detected in the saliva"}]}
{"smiles": "Cc1cc2c(s1)Nc1ccccc1N=C2N1CCN(C)CC1", "note": "[anhydrous Form I olanzapine, 2-methyl-4-(4-methyl-1-piperazinyl)-10H-thieno[2,3-b][1,5]benzodiazepine]", "values": [{"measurement": "stability of crystal form", "setting": "[2]", "result": "stable"}, {"measurement": "inhibition of conditioned avoidance response", "setting": "[3]", "result": "inhibits"}, {"measurement": "antagonism of apomorphine-induced hypothermia", "setting": "[4]", "result": "antagonised"}, {"measurement": "antagonism of apomorphine-induced climbing behavior", "setting": "[5]", "result": "antagonised"}, {"measurement": "induction of catalepsy", "setting": "[6]", "result": "induces cataleptsy only at higher doses"}, {"measurement": "5-HT2B receptor activity", "setting": "[7]", "result": "5-HT2B receptor activity"}]}
{"smiles": "Cc1cc2c(s1)Nc1ccccc1N=C2N1CCN(C)CC1", "note": "[anhydrous Form II 2-methyl-4-(4-methyl-1-piperazinyl)-10H-th] [2-methyl-4-(4-methyl-1-piperazinyl)-10H-thieno[2,3-b][1,5]benzodiazepine]", "values": [{"measurement": "stability of crystal form", "setting": "[2]", "result": "metastable"}]}
